Laboratory results as given in US20240382629A1, “HETEROBIVALENT AND HOMOBIVALENT AGENTS TARGETING FIBROBLAST ACTIVATION PROTEIN ALPHA AND/OR PROSTATE-SPECIFIC MEMBRANE ANTIGEN” (The Johns Hopkins University, priority 2021, published 2024).
Where two headings read alike, the source gives them in different places.

Legend:
Type in all cases: biochemical
[1] = target: PREP (Homo sapiens (Human), UniProt P48147); assay: PREP inhibition assay (recombinant enzyme, Z-Gly-Pro-AMC substrate)
Description: (§1) PSMA binding affinities of the compounds were determined using a competitive inhibition assay as previously reported. […] FAP, prolyl endopeptidase (PREP), and […] (DPPIV) inhibition assays: Recombinant enzymes (FAP, PREP, DPPIV) were purchased from R&D Systems (Minneapolis, MN). […] Z-Gly-Pro-AMC was used as a substrate for FAP and PREP. H-Gly-Pro-AMC was used as a substrate for DPPIV. The recombinant enzyme (0.4 μg/mL) was incubated with varying amounts of the test articles in the presence of the designated substrate (80 μM) for 10 min at room temperature. Fluorescence intensity was measured with 380 nm excitation and 460 nm emission using the Cytation 5 Cell Imaging Multi-Mode Reader (BioTek, Winooski, VT). IC50 and Ki values were obtained using a sigmoidal dose-response function.

[2] = target: DPPIV (Homo sapiens (Human), UniProt P27487); assay: DPPIV inhibition assay (recombinant enzyme, H-Gly-Pro-AMC substrate)
Description: as §1

[3] = target: FAP (Homo sapiens (Human), UniProt Q12884); assay: FAP inhibition assay (recombinant enzyme, Z-Gly-Pro-AMC substrate); conditions: for Ki: read-out: FAP Ki
Description: as §1

[4] = target: PSMA (Homo sapiens (Human), UniProt Q04609); assay: PSMA competitive inhibition assay (NAAG substrate, LNCaP cell lysate); conditions: for Ki: read-out: PSMA Ki
Description: as §1

DPPIV, sequence (P27487 whole entry): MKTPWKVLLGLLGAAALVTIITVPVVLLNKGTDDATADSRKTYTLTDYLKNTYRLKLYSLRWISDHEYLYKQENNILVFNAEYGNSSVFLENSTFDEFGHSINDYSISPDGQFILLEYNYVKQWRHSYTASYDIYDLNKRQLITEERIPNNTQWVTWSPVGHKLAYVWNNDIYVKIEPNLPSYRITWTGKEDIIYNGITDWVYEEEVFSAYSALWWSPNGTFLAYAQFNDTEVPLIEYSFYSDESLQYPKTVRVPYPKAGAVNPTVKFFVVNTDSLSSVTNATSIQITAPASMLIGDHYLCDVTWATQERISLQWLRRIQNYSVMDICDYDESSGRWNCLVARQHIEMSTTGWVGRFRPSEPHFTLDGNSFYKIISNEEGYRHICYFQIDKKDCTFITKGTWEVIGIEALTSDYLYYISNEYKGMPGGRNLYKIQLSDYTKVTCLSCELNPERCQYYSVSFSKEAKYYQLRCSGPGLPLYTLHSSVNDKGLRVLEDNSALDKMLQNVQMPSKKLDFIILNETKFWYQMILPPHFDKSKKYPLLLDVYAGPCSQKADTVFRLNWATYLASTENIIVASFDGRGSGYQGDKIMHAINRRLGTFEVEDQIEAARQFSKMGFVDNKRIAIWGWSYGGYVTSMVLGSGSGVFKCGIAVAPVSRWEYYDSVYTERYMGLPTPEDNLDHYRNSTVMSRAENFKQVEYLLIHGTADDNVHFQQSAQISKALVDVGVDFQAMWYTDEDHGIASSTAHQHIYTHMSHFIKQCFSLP
PSMA, sequence (Q04609 whole entry): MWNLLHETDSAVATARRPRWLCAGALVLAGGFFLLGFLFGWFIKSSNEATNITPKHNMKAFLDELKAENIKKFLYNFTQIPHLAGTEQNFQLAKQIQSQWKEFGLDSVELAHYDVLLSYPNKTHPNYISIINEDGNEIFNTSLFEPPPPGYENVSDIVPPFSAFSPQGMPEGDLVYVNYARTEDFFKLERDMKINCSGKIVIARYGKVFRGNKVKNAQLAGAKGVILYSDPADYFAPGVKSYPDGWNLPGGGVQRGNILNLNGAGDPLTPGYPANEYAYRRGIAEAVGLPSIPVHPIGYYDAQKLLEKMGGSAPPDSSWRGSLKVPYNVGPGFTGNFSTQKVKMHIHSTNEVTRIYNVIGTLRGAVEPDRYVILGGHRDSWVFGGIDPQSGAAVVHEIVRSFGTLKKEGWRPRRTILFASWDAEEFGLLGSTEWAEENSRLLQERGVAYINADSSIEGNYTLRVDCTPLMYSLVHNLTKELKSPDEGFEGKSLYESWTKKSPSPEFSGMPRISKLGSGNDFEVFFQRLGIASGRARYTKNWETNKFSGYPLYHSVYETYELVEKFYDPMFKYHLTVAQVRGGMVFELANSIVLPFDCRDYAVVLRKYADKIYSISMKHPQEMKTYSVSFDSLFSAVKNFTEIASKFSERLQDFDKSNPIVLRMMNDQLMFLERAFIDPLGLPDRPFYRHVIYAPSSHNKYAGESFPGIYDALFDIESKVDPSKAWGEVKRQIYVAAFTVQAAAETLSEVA
PREP, sequence (P48147 whole entry): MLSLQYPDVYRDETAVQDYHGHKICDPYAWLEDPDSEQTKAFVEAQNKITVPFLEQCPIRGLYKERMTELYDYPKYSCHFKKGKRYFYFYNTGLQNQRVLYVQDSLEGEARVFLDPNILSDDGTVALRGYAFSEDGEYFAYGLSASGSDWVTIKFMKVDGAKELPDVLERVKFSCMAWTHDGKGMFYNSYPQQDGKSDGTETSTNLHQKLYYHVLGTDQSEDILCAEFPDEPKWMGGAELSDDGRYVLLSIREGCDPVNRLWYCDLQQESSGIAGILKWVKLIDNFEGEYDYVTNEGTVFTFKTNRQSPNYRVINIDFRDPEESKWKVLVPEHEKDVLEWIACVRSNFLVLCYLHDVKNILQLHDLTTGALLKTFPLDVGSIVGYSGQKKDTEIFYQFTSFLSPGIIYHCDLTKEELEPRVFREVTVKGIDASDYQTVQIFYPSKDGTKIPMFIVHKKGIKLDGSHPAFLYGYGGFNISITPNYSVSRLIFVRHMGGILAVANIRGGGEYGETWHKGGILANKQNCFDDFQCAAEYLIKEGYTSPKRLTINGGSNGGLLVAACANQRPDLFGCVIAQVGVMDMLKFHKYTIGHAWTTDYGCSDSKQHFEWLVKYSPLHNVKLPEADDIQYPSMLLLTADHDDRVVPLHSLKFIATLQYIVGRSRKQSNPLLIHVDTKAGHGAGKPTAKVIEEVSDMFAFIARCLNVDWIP
FAP, sequence (Q12884 whole entry): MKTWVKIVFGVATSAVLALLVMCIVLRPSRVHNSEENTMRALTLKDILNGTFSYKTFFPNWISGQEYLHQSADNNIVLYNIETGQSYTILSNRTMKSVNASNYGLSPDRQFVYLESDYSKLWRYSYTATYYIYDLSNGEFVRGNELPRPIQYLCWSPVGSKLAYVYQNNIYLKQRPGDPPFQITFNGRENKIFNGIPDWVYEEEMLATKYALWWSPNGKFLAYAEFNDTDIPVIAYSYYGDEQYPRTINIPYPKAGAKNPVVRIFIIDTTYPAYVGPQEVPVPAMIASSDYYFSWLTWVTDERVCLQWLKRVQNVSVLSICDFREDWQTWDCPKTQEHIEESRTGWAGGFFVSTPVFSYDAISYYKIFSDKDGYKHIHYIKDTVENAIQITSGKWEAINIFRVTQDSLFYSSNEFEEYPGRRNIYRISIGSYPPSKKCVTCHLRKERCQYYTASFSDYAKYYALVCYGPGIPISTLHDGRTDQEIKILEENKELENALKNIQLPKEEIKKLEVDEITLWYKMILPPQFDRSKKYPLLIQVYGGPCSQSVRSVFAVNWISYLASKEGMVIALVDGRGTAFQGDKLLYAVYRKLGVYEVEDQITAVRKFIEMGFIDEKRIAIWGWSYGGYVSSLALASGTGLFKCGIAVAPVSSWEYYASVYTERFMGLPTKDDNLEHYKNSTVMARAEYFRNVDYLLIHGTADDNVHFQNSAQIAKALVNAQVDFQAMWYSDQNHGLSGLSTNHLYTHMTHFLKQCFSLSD

Row | SMILES | IC50 ([1]; Table 3) [µM] | IC50 ([2]; Table 3, read-out: DPPIV IC50) [µM] | IC50 ([3]; Table 3) [µM] | Ki ([3]; Table 3) [nM] | further results
1 | N#C[C@@H]1CCCN1C(=O)CNC(=O)c1ccnc2cc(F)ccc12 [JHU1220501] | 0.522 | > 20 | 0.00216 | 0.433 | –
2 | N#C[C@@H]1CCCN1C(=O)CNC(=O)c1ccnc2ccc(OCCCNC(=O)CNC(=O)[C@H](CCCCNC(=O)c3ccc(F)nc3)NC(=O)CN3CCN(CC(=O)O)CCN(CC(=O)O)CCN(CC(=O)O)CC3)cc12 [JHU1221804] | 1.71 | 8.31 | 0.00101 | 0.2 | –
3 | N#C[C@@H]1CCCN1C(=O)CNC(=O)c1ccnc2cccc(F)c12 [JHU1219438] | 0.0958 | > 20 | 0.000912 | 0.182 | –
4 | N#C[C@@H]1CC(F)(F)CN1C(=O)CNC(=O)c1ccnc2ccc(F)cc12 [JHU1220466] | 0.047 | 3.5 | 0.00031 | 0.062 | –
5 | N#CC1CCCN1C(=O)CNC(=O)c1ccnc2ccc(OCCCNC(=O)CCc3cn(CCCC[C@H](NC(=O)CN4CCN(CC(=O)O)CCN(CC(=O)O)CC4)C(=O)NCCCOc4ccc5nccc(C(=O)NCC(=O)N6CCC[C@H]6C#N)c5c4)nn3)cc12 (stereo partly shown) [SB-FAP-09] | 0.63 | 2.05 | 0.00048 | 0.1 | –
6 | CC1(C)C(/C=C/C2=C(Oc3ccc(S(=O)(=O)O)cc3)C(=C/C=C3/N(CCCCS(=O)(=O)O)c4ccc(S(=O)(=O)O)cc4C3(C)C)/CCC2)=[N+](CCCCCC(=O)N[C@@H](CCCCn2cc(CCC(=O)NCCCOc3ccc4nccc(C(=O)NCC(=O)N5CCC[C@H]5C#N)c4c3)nn2)C(=O)NCCNC(=O)CCC(C(=O)O)N2CCN(CC(=O)O)CCN(CC(=O)O)CCN(CC(=O)O)CC2)c2ccc(S(=O)(=O)[O-])cc21 (stereo partly shown) [SB-FAP-10] | – | – | – | – | IC50 ([1]; Table 4): 2.53 µM; IC50 ([2]; Table 4, read-out: DPPIV IC50): 11.9 µM; IC50 ([3]; Table 4): 0.00343 µM; Ki ([3]; Table 4): 0.69 nM
7 | N#C[C@@H]1CCCN1C(=O)CNC(=O)c1ccnc2ccc(OCCCNC(=O)CCc3cn(CCCC[C@H](NC(=O)CN4CCN(CC(=O)O)CCN(CC(=O)O)CCN(CC(=O)O)CC4)C(=O)NCCCCCC(=O)N(CCCC[C@H](NC(=O)N[C@@H](CCC(=O)O)C(=O)O)C(=O)O)Cc4ccc(Br)cc4)nn3)cc12 [SB-FAP-06] | – | – | – | – | IC50 ([1]; Table 4): 0.37 µM; IC50 ([2]; Table 4, read-out: DPPIV IC50): 14.1 µM; IC50 ([4]; Table 4): 0.00471 µM; Ki ([4]; Table 4): 0.00094 µM; IC50 ([3]; Table 4): 0.00184 µM; Ki ([3]; Table 4): 0.37 nM
8 | N#C[C@@H]1CCCN1C(=O)CNC(=O)c1ccnc2ccc(OCCF)cc12 [JHU1220470] | 1.41 | – | 0.000343 | 0.0686 | IC50 [2]: > 20 µM
9 | N#C[C@@H]1CCCN1C(=O)CNC(=O)c1ccnc2ccc(OCCOCCNC(=O)[C@H](CCCCNC(=O)c3ccc(F)nc3)NC(=O)CN3CCN(CC(=O)O)CCN(CC(=O)O)CCN(CC(=O)O)CC3)cc12 [JHU1221803] | 1.09 | 6.22 | 0.0014 | 0.28 | –
10 | N#CC1CCCN1C(=O)CNC(=O)c1ccnc2ccc(OCCCNC(=O)CCc3cn(CC[C@H](NC(=O)CN4CCN(CC(=O)O)CCN(CC(=O)O)CC4)C(=O)NCCCCCC(=O)NCCCC[C@H](NC(=O)N[C@@H](CC(=O)O)C(=O)O)C(=O)O)nn3)cc12 (stereo partly shown) [SRI-07-42] | – | – | – | – | IC50 ([1]; Table 4): 11.2 µM; IC50 ([2]; Table 4, read-out: DPPIV IC50): 9.91 µM; IC50 ([4]; Table 4): 4.71 µM; Ki ([4]; Table 4): 0.94 µM; IC50 ([3]; Table 4): 0.00223 µM; Ki ([3]; Table 4): 0.45 nM
11 | N#C[C@@H]1CCCN1C(=O)CNC(=O)c1ccnc2ccc(OCCCNC(=O)CCc3cn(CCOCCOCCOCCC(=O)N[C@@H](CCCCNC(=O)CCC(C(=O)O)N4CCN(CC(=O)O)CCN(CC(=O)O)CCN(CC(=O)O)CC4)C(=O)NCCCCC(=O)N(CCCC[C@H](NC(=O)N[C@@H](CCC(=O)O)C(=O)O)C(=O)O)Cc4ccc(Br)cc4)nn3)cc12 (stereo partly shown) [SB-FAP-03] | – | – | – | – | IC50 ([1]; Table 4): 1.37 µM; IC50 ([2]; Table 4, read-out: DPPIV IC50): 18.4 µM; IC50 ([4]; Table 4): 0.0145 µM; Ki ([4]; Table 4): 0.00289 µM; IC50 ([3]; Table 4): 0.00342 µM; Ki ([3]; Table 4): 0.68 nM
12 | N#C[C@@H]1CCCN1C(=O)CNC(=O)c1ccnc2ccc(OCCCN(Cc3ccc(F)nc3)C(=O)CN3CCN(CC(=O)O)CCN(CC(=O)O)CCN(CC(=O)O)CC3)cc12 [JHU1221709] | 21.9 | 12.6 | 0.00209 | 0.42 | –
13 | N#C[C@@H]1C[C@H](F)CN1C(=O)CNC(=O)c1ccnc2ccc(F)cc12 [JHU1220471] | 0.0115 | 2.53 | 0.000734 | 0.147 | –
14 | N#C[C@@H]1CCCN1C(=O)CNC(=O)c1ccnc2c(F)cccc12 [JHU1220502] | 0.0845 | > 20 | 0.00504 | 1.01 | –
15 | N#C[C@@H]1CCCN1C(=O)CNC(=O)c1ccnc2ccc(OCCCNC(=O)[C@@H](CC(=O)O)NC(=O)[C@@H](CC(=O)O)NC(=O)c3cccc(F)n3)cc12 [JHU1221708] | 6.91 | 7.91 | 0.00119 | 0.24 | –
16 | N#C[C@@H]1CCCN1C(=O)CNC(=O)c1ccnc2ccc(OCCCNC(=O)CCc3cn(CCCC[C@H](NC(=O)CN4CCN(CC(=O)O)CCN(CC(=O)O)CC4)C(=O)NCCCCCC(=O)N(CCCC[C@H](NC(=O)N[C@@H](CCC(=O)O)C(=O)O)C(=O)O)Cc4ccc(Br)cc4)nn3)cc12 [SB-FAP-07] | – | – | – | – | Ki [1]: 0.21 µM; IC50 ([1]; Table 4): 1.07 µM; Ki [2]: 3.04 µM; IC50 ([2]; Table 4, read-out: DPPIV IC50): 11.7 µM; IC50 ([4]; Table 4): 0.0396 µM; Ki [4]: 0.00792 µM; IC50 ([3]; Table 4): 0.00065 µM; Ki [3]: 0.13 nM
17 | N#C[C@@H]1CCCN1C(=O)CNC(=O)c1ccnc2ccc(OCCCN(Cc3ccc(I)cc3)C(=O)CN3CCN(CC(=O)O)CCN(CC(=O)O)CCN(CC(=O)O)CC3)cc12 [JHU1220627] | > 2000 | 836 | 0.00141 | 0.28 | –
18 | N#C[C@@H]1CCCN1C(=O)CNC(=O)c1c(F)cnc2ccccc12 [JHU1220503] | 0.688 | > 20 | 0.223 | 44.6 | –
19 | N#C[C@@H]1CCCN1C(=O)CNC(=O)c1ccnc2ccc(OCCCNC(=O)CCOCCOCCOCCOCCNC(=O)[C@H](CCCCNC(=O)c3ccc(F)nc3)NC(=O)CN3CCN(CC(=O)O)CCN(CC(=O)O)CCN(CC(=O)O)CC3)cc12 [JHU1221823] | 0.24 | 7.47 | 0.00059 | 0.12 | –
20 | N#C[C@@H]1CCCN1C(=O)CNC(=O)c1ccnc2ccc(OCCCNC(=O)CCc3cn(CCCC[C@H](NC(=O)c4ccc(F)nc4)C(=O)NCCNC(=O)CCC(C(=O)O)N4CCN(CC(=O)O)CCN(CC(=O)O)CCN(CC(=O)O)CC4)nn3)cc12 (stereo partly drawn) [SB-FAP-11, 2,2′,2″-(10-(1-Carboxy-4-((2-((S)-6-(4-(3-((3-((4-((2-((S)-2-cyanopyrrolidin-1-yl)-2-oxoethyl)carbamoyl)quinolin-6-yl)oxy)propyl)amino)-3-oxopropyl)-1H-1,2,3-triazol-1-yl)-2-(6-fluoronicotinamido)hexanamido)ethyl)amino)-4-oxobutyl)-1,4,7,10-tetraazacyclododecane-1,4,7-triyl)triacetic acid] | 0.51 | 9.48 | 0.00035 | 0.07 | –
21 | N#C[C@@H]1CCCN1C(=O)CNC(=O)c1ccnc2ccc(OCCCNC(=O)[C@@H](CC(=O)O)NC(=O)[C@@H](CC(=O)O)NC(=O)c3ccc(F)nc3)cc12 [JHU1221785] | 86.6 | 17.7 | 0.00131 | 0.26 | –
